The source made the active and inactive calls. The rule behind the calls is not given here.
Experiments:
HEK293 = assay: (§1) Cytotoxicity against HEK293 cells assessed as cell growth inhibition measured after 48 hrs by MTT assay; format: toxicity, cell-based, Homo sapiens; conditions: hek293
MCF7 = assay: Anticancer activity against human MCF7 cells assessed as cell growth inhibition measured after 48 hrs by MTT assay; format: functional, cell-based; conditions: MCF7, 48 h
LNCaP C4-2 [1] = assay: Anticancer activity against human LNCaP C4-2 cells assessed as cell growth inhibition measured after 48 hrs by MTT assay; format: functional, cell-based; conditions: LNCaP C4-2, 48 h
PC-3 = assay: Anticancer activity against human PC-3 cells assessed as cell growth inhibition measured after 48 hrs by MTT assay; format: functional, cell-based; conditions: PC-3, 48 h
CWR22R = assay: Anticancer activity against human 22Rv1 cells assessed as cell growth inhibition measured after 48 hrs by MTT assay; format: functional, cell-based; conditions: 22Rv1, 48 h
[2] = as §1; format: toxicity, cell-based, Homo sapiens; conditions: human, HEK293 cells
Cell membrane [3] = assay: Induction of mitochondrial membrane depolarization in human LNCaP C4-2 cells at 1 ug/ml measured after 48 hrs by JC-1 staining based fluorescence microscopic analysis; format: subcellular; conditions: dose 1.0 µg/ml
LNCaP C4-2 [4] = assay: Inhibition of colony formation in human LNCaP C4-2 cells assessed as decrease in colony number at 10 uM measured after 10 days by crystal violet staining based assay; format: functional, cell-based; conditions: time 10.0 day
Tubulin (Homo sapiens) [5] = biological target: T1, Tubulin (Homo sapiens) (UniProt P68371+Q9H4B7+P0DPH7+P68366+Q13509+Q71U36+P04350+Q3ZCM7+P07437+P68363+Q9BQE3+Q6PEY2+Q13885+Q9BVA1+Q9BUF5); assay: Induction of tubulin depolymerization in human 22Rv1 cells assessed as decrease in polymerized tubulin level at 20 uM measured after 24 hrs by Bradford assay relative to control; format: cell-based; design: scale not given: the % may be the effect or the level left
LNCaP C4-2 [6] = assay: Induction of cell death in human LNCaP C4-2 cells assessed as red fluorescence at 10 uM incubated for 48 hrs by ethidium bromide/acridine orange staining based fluorescent microscopic analysis; format: functional
LNCaP C4-2 [7] = assay: Induction of ROS accumulation in human LNCaP C4-2 cells at 10 uM measured after 48 hrs by H2DCFDA dye based inverted fluorescent microscopic analysis; format: functional, cell-based
LNCaP C4-2 [8] = assay: Induction of apoptosis in human LNCaP C4-2 cells assessed as increase in c-Jun level at 10 uM measured after 48 hrs by Western blot analysis; format: functional, cell-based
LNCaP C4-2 [9] = assay: Induction of apoptosis in human LNCaP C4-2 cells assessed as increase in p53 level at 10 uM measured after 48 hrs by Western blot analysis; format: functional, cell-based
LNCaP C4-2 [10] = assay: Induction of cytokinesis defect in human LNCaP C4-2 cells at 10 uM measured after 48 hrs by DAPI staining based fluorescence imaging analysis; format: functional, cell-based
LNCaP C4-2 [11] = assay: Inhibition of cell migration in human LNCaP C4-2 cells assessed as reduction in cell motility at 10 uM incubated for 12 to 24 hrs by inverted microscopy based scratch wound healing assay; format: functional; conditions: time 12-24 hrs
Tubulin (Homo sapiens) [12] = biological target: T1, Tubulin (Homo sapiens); assay: Induction of tubulin depolymerization in human LNCaP C4-2 cells assessed as shrinkage of tubulin at 10 uM measured after 48 hrs by fluorescence microscopic analysis; format: cell-based
Cell membrane [13] = assay: Induction of mitochondrial membrane depolarization in human LNCaP C4-2 cells at 10 uM measured after 48 hrs by JC-1 staining based fluorescence microscopic analysis; format: subcellular
Tubulin (Homo sapiens) [14] = biological target: T1, Tubulin (Homo sapiens); assay: Induction of tubulin depolymerization in human LNCaP C4-2 cells assessed as tubulin condensation towards nucleus at 10 uM measured after 48 hrs by fluorescence microscopic analysis; format: cell-based

Row | SMILES | IC50 (MCF7) [µM] | IC50 (LNCaP C4-2 [1]) [µM] | IC50 (PC-3) [µM] | IC50 (HEK293) [µM] | IC50 (CWR22R) [µM] | further results
1 | COc1cc(N=S(C)(=O)c2cn(Cc3ccc(Cl)cc3)c3ccccc23)cc(OC)c1OC (configuration not stated) |  | 40 | > 40 | > 40 | > 40 | 
2 | COc1cc(N=S(C)(=O)c2c[nH]c3ccccc23)cc(OC)c1OC (configuration not stated) | 40 | 10 | 21.7 | > 40 | > 40 | 
3 | CS(=O)(=Nc1ccc(F)cc1)c1c[nH]c2ccccc12 (configuration not stated) | 40 | 3.7 | > 40 | > 40 | 40 | 
4 | CS(=O)(=Nc1cccc(C(F)(F)F)c1)c1c[nH]c2ccccc12 (configuration not stated) | 2 | 2.18 |  |  | > 40 | IC50 at 48 h [2]: 40 µM
5 | COc1ccc(C[C@H](N)C(=O)N[C@H]2[C@@H](O)[C@H](n3cnc4c(N(C)C)ncnc43)O[C@@H]2CO)cc1 |  |  |  |  |  | Activity (Cell membrane [3]): Active
6 | CS(=O)(=Nc1ccc(F)c(F)c1)c1c[nH]c2ccccc12 (configuration not stated) | > 40 | 1.9 | 14.4 | > 40 | 40 | 
7 | CS(=O)(=Nc1ccccc1)c1c[nH]c2ccccc12 (configuration not stated) | 10 | 8.9 | > 40 | > 40 | > 40 | 

Second part, led by results:

Row | IC50 (MCF7) [µM] | IC50 (LNCaP C4-2 [1]) [µM] | IC50 (PC-3) [µM] | SMILES | IC50 (HEK293) [µM] | IC50 (CWR22R) [µM] | further results
8 | > 40 | 40 | 12.2 | COc1ccc(N=S(C)(=O)c2c[nH]c3ccc(OC)cc23)cc1 (configuration not stated) | > 40 | 2.76 | 
9 | > 40 | 1.95 | 17.1 | COc1ccc(N=S(C)(=O)c2c[nH]c3ccccc23)cc1 (configuration not stated) | > 40 | 3.31 | 
10 | 38.8 | > 40 | > 40 | COc1ccc2[nH]cc(S(C)(=O)=Nc3cc(OC)c(OC)c(OC)c3)c2c1 (configuration not stated) | > 40 | 2.68 | 
11 | 1.7 | 8.2 | 3.51 | COc1ccc(N=S(C)(=O)c2c[nH]c3cc(F)ccc23)cc1 (configuration not stated) |  | 1.91 | inhibition (LNCaP C4-2 [4]): Active; Activity (Tubulin (Homo sapiens) [5]): 13%; Activity (LNCaP C4-2 [6]): Active; IC50 at 48 h [2]: > 40 µM; Activity (LNCaP C4-2 [7]): Active; Activity (LNCaP C4-2 [8]): Active; Activity (LNCaP C4-2 [9]): Active; Activity (LNCaP C4-2 [10]): Active; inhibition (LNCaP C4-2 [11]): Active; Activity (Tubulin (Homo sapiens) [12]): Active; Activity (Cell membrane [13]): Active; Activity (Tubulin (Homo sapiens) [14]): Active
12 | 1.28 |  |  | COc1ccc(N=S(C)(=O)c2c[nH]c3ccc(Br)cc23)cc1 (configuration not stated) |  |  | IC50 at 48 h [2]: > 40 µM
13 | 1.6 | 2.3 | > 40 | Cc1ccc(N=S(C)(=O)c2c[nH]c3ccccc23)cc1 (configuration not stated) |  | > 40 | IC50 at 48 h [2]: 40 µM
14 | > 40 | > 40 | 11.1 | CS(=O)(=Nc1ccc(Br)cc1)c1c[nH]c2ccccc12 (configuration not stated) | > 40 | > 40 | 

— ChEMBL document CHEMBL5365455, “Design, synthesis and anticancer activity of N-aryl indolylsulfoximines: Identification of potent and selective anticancer agents” (Bioorg Med Chem, 2023)
